Where “and” joins values, the source holds several entries; their conditions need not be identical. Identical values can stand only once.
Assays:
[1] = Metabolite profiling and identification in pools of plasma, urine and feces (UPLC-MS, AMS); assay type: in vivo, human
Experimental: Individual pools of plasma (0–336 h, including time points at 1, 4, 9, 12, 24, 48, 72, 96, 120, 168, 240, and 336 h), urine (0–240 h, including time intervals 0–6, 6–12, 12–24, 24–48, 48–72, 72–96, 96–120, 120–168, 168–192, 192–216, and 216–240 h) and feces homogenates (0–240 h, including time intervals 0–6, 6–12, 12–24, 24–48, 48–72, 72–96, 96–120, 120–168, and 168–240 h) were prepared; for plasma this was done according to the method described in reference and for feces by using equal percentages per time point based on total volume. Subsequently, a pool per matrix was prepared by mixing equal volumes of each participant pool. In addition, a plasma pre-dose pool was prepared by mixing equal volumes of each pre-dose sample. For urine and feces, TNO blank pool was used to generate a pre-dose sample. Samples were stored below −18°C. Samples (100 µL plasma, 250 µL urine, and 200 mg feces) were pre-treated and injected onto an ultra-high performance liquid chromatography (UPLC)-MS system (Acquity UPLC system [Waters] coupled to a Q-Exactive [Thermo]; Acquity HSS C18 VanGuard 5 mm × 2.1 mm, 1.8 µm [Waters] pre-column and Acquity HSS C18 100 mm × 2.1 mm, 1.8 µm d.p. [Waters]). Fractions were collected and analyzed off-line by AMS. AMS analysis was performed on an AMS system, consisting of an elemental analyzer, a double gas interface, and a 1 MV multi-element AMS. All fecal homogenate sample analyzes were performed in triplicate. Plasma pre-dose and TNO blank urine and feces pools were used for background correction. The UPLC method qualification included determination of retention time stability and extraction recovery. Metabolites were tentatively assigned to fractions in which activity greater than the baseline was observed, based on retention time and structural information provided by DNDi. Presence of the metabolite was confirmed by accurate mass data from high-resolution mass spectrometric analysis.

CYP2C8 = biological target: T1, CYP2C8 (Homo sapiens, UniProt P10632); test: Incubation with CYP450 recombinant enzymes (Bactosomes) and NADPH; assay type: in vitro ADME; details: 1 µM
T1 construct: purchased
T1 sequence (P10632 1-490): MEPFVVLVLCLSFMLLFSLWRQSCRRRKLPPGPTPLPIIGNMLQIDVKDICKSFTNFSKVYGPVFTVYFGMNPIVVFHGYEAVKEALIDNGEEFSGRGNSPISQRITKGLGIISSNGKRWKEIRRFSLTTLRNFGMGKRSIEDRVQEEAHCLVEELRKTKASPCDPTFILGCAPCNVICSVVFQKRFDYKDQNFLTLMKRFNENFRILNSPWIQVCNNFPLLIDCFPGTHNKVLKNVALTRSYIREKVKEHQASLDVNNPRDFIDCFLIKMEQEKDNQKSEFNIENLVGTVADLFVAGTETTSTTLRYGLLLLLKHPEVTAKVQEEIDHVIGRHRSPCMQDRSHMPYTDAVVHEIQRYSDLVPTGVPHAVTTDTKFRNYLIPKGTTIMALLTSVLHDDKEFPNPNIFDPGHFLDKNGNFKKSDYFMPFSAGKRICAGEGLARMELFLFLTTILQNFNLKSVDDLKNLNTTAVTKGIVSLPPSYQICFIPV

CC1(C)OB(O)c2cc(NC(=O)c3ccc(F)cc3C(F)(F)F)ccc21 [acoziborole]
proportion of the dose excreted, urine and feces combined ([1]; 0–240 h pools): 34.2%
abundance relative to dose, feces ([1]; feces homogenates 0–240 h): 33.6%
relative abundance in radiochromatogram, feces homogenates pool ([1]; feces homogenates 0–240 h): 66.0%
relative abundance in radiochromatogram (share of total radioactivity), plasma pool ([1]; plasma pool 0–336 h, 960 mg single oral [14C]-acoziborole, listed as Parent (acoziborole)): 95.1%
abundance relative to dose, urine ([1]; urine pool 0–240 h): 0.6% and < 1%
relative abundance in radiochromatogram, urine pool ([1]; urine pool 0–240 h): 7.6%
abundance relative to dose, urine ([1]; urine pool 0–240 h, listed as Parent (acoziborole)): 0.6%
metabolism by recombinant CYP2C8 (CYP2C8): metabolized by
